According to ChEMBL document CHEMBL4017496 (J Med Chem, 2017):
Calls of active or inactive are those of the source. The rule behind the calls is not given here.

How the values were obtained:
[1] = Induction of adipogenesis in human bone marrow-derived mesenchymal stem cells assessed as adiponectin level at 4 uM measured on day 7 after 48 hrs by ELISA; assay type: functional, Mesenchymal stem cell
[2] = Induction of adipogenesis in human bone marrow-derived mesenchymal stem cells assessed as adiponectin level at 20 uM measured on day 7 after 48 hrs by ELISA; assay type: functional, Mesenchymal stem cell
[3] = molecular target: T1, Peroxisome proliferator-activated receptor delta (Homo sapiens) (UniProt Q03181); test: Displacement of Fluormone-Pan-PPAR Green from human GST-tagged PPARdelta LBD at 10 uM by TR-FRET assay relative to control
T1 sequence (whole entry): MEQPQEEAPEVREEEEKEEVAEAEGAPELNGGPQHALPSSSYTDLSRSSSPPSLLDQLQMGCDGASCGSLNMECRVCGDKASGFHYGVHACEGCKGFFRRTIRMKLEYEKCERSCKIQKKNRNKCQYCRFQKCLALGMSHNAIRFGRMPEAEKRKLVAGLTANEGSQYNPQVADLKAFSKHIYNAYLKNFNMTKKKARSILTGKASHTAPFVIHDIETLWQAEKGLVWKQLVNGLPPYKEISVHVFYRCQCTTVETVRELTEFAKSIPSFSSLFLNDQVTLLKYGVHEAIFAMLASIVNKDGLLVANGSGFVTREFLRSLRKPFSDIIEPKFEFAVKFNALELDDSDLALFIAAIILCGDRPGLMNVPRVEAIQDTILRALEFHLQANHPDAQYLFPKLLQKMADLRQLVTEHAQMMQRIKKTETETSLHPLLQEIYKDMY

[4] = molecular target: T2, Peroxisome proliferator-activated receptor alpha (Homo sapiens) (UniProt Q07869); test: Displacement of Fluormone-Pan-PPAR Green from human GST-tagged PPARalpha LBD at 20 uM by TR-FRET assay relative to control
T2 sequence (whole entry): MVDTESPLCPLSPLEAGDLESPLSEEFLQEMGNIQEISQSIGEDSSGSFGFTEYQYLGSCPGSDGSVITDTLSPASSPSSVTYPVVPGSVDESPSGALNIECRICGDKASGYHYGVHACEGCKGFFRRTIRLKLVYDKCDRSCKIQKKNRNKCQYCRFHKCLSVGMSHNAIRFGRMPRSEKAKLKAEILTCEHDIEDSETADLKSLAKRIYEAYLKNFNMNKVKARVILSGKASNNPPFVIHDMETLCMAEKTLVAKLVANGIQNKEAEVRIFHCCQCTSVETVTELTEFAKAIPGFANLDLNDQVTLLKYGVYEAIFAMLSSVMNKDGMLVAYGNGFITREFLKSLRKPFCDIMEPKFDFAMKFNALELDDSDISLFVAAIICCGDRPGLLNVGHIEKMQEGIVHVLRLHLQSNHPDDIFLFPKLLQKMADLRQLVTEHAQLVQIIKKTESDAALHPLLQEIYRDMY

[5] = molecular target: T3, Peroxisome proliferator-activated receptor gamma (Homo sapiens) (UniProt P37231); test: Displacement of Fluormone-Pan-PPAR Green from human GST-tagged PPARgamma LBD at 20 uM by TR-FRET assay relative to control
T3 sequence (whole entry): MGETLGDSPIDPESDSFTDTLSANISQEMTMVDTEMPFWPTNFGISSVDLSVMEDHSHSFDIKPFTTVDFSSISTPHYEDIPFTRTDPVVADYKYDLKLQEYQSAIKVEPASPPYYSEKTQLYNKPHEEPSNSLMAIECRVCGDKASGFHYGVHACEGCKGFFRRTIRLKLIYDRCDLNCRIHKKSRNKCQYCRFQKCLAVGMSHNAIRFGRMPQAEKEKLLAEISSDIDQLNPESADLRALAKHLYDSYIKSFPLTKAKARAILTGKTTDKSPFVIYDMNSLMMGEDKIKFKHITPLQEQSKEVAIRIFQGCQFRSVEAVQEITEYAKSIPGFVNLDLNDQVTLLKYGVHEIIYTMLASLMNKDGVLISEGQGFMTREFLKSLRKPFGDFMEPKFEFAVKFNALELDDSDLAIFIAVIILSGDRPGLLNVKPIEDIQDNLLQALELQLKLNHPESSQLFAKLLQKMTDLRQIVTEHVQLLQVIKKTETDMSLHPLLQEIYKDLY

[6] = molecular target: T4, Peroxisome proliferator-activated receptor delta (Homo sapiens, UniProt Q03181); test: Displacement of Fluormone-Pan-PPAR Green from human GST-tagged PPARdelta LBD by TR-FRET assay
T4 sequence (Q03181 whole entry): T1 sequence (whole entry)

Mus musculus [7] = test: Antidiabetic activity in STZ-induced diabetic C57BL/6J mouse assessed as insulin sensitivity by measuring reduction of serum glucose levels at 20 mg/kg,po for 5 days measured at 1 and 4 hrs post last dose; assay type: functional, organism-based
Adenosine receptor A3 = molecular target: T5, Adenosine receptor A3 (Homo sapiens, UniProt P0DMS8); test: Displacement of [125I]I-AB-MECA from human A3 adenosine receptor expressed in CHO cell membranes after 60 mins by gamma counting method
T5 sequence (P0DMS8 whole entry): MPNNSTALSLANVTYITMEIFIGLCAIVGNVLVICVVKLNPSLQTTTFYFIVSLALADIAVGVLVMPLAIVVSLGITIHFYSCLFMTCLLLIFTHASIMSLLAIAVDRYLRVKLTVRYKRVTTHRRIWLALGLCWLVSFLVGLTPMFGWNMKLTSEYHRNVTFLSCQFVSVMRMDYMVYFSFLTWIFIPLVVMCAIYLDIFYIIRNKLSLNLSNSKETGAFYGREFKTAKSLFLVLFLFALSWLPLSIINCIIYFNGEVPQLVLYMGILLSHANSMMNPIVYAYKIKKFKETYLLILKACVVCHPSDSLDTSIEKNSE

[8] = molecular target: Peroxisome proliferator-activated receptor delta (Homo sapiens) (UniProt Q03181); test: Antagonist activity at human GST-tagged PPARdelta LBD assessed as reduction in GW501516-induced fluorescein-C33 coactivator recruitment at 1 uM by TR-FRET assay relative to control
[9] = molecular target: T1, Peroxisome proliferator-activated receptor delta (Homo sapiens); test: Transrepression of human GST-tagged PPARdelta LBD assessed as induction of corepressor SMRT-ID2 peptide recruitment by TR-FRET assay
[10] = molecular target: T3, Peroxisome proliferator-activated receptor gamma (Homo sapiens); test: Transactivation of human PPARgamma expressed in African green monkey CV1 cells at 10 uM by luciferase reporter gene assay relative to control; assay type: cell-based
[11] = molecular target: T1, Peroxisome proliferator-activated receptor delta (Homo sapiens); test: Transactivation of human GST-tagged PPARdelta LBD assessed as fluorescein-C33 coactivator recruitment at 10 uM by TR-FRET assay
Mesenchymal stem cell [12] = test: Induction of adipogenesis in human bone marrow-derived mesenchymal stem cells assessed as adiponectin level at 20 to 30 uM measured on day 7 after 48 hrs by ELISA; assay type: functional, cell-based
[13] = molecular target: T6, Peroxisome proliferator-activated receptor gamma (Homo sapiens, UniProt P37231); test: (§1) Displacement of Fluormone-Pan-PPAR Green from human GST-tagged PPARgamma LBD by TR-FRET assay
T6 sequence (P37231 whole entry): T3 sequence (whole entry)

[14] = Induction of adipogenesis in mouse 7F2 cells transfected with human AR assessed as increase in […] at 1 to 10 uM after 7 to 12 days by staining based oil red O phase contrast microscopic method relative to control; assay type: functional
Mesenchymal stem cell [15] = test: Induction of adipogenesis in human bone marrow-derived mesenchymal stem cells assessed as increase in adiponectin production at 20.4 uM after 7 days in presence of IDX; assay type: functional, cell-based
[16] = molecular target: T3, Peroxisome proliferator-activated receptor gamma (Homo sapiens); test: as §1
Mus musculus [17] = test: Antidiabetic activity in STZ-induced diabetic C57BL/6J mouse assessed as insulin sensitivity by measuring reduction of serum glucose levels administered po for 5 days measured at 1 and 4 hrs post last dose; assay type: functional, organism-based

| SMILES | Activity [1] [pg/mL] | Activity [2] [pg/mL] | inhibition [4] [%] | Ki [6] [nM] | further results |
| --- | --- | --- | --- | --- | --- |
| COc1ccc(Cl)cc1C(=O)NCCc1ccc(S(=O)(=O)NC(=O)NC2CCCCC2)cc1 [GLYBURIDE] | 838 | 1000 |  |  | inhibition [3]: 21.5% |
| CCNC(=O)[C@H]1S[C@@H](n2cnc3c(NCc4cccc(I)c4)ncnc32)[C@H](O)[C@@H]1O | 118 | 242 | 29.3 | 3150 | inhibition [5]: 37.1% |
| CNC(=O)[C@H]1S[C@@H](n2cnc3c(NCc4cccc(I)c4)ncnc32)[C@H](O)[C@@H]1O | 126 | 343 | 13.5 | 2540 | Activity (Mus musculus [7]): Active; Ki (Adenosine receptor A3): 0.3 nM; inhibition [8]: 22%; Activity [9]: Active; inhibition [5]: 46.9%; Activity [10]: 46.9%; Activity [11]: inactive |
| O[C@@H]1[C@H](O)CS[C@H]1n1cnc2c(NCc3ccccc3Cl)nc(Cl)nc21 | 107 | 268 | 19.2 | 620 | inhibition [5]: 19.2% |
| Cc1c(C)c2c(c(C)c1O)CCC(C)(COc1ccc(CC3SC(=O)NC3=O)cc1)O2 (centres undefined) |  |  |  |  | inhibition [3]: 23.4% |
| CCCn1cc2c(nc(NC(=O)Nc3ccc(OC)cc3)n3nc(-c4ccco4)nc23)n1 |  |  |  |  | Activity (Mesenchymal stem cell [12]): inactive |
| O[C@@H]1[C@H](O)CS[C@H]1n1cnc2c(NCc3cccc(I)c3)ncnc21 |  |  |  |  | Ki (Adenosine receptor A3): 1.5 nM |
| CNC(=O)[C@H]1S[C@@H](n2cnc3c(NCc4cccc(I)c4)nc(Cl)nc32)[C@H](O)[C@@H]1O | 131 | 738 | 37.8 | 160 | Ki [13]: 4600 nM |
| O=C(NCC1CC1)[C@H]1S[C@@H](n2cnc3c(NCc4cccc(I)c4)ncnc32)[C@H](O)[C@@H]1O | 242 | 490 | 16.4 |  |  |
| O=C(NC1CC1)[C@H]1S[C@@H](n2cnc3c(NCc4cccc(I)c4)ncnc32)[C@H](O)[C@@H]1O | 174 | 249 | 37.6 | 2980 | inhibition [5]: 49.1% |
| O[C@@H]1[C@H](O)CS[C@H]1n1cnc2c(NCc3cccc(Cl)c3)nc(Cl)nc21 | 196 | 442 | 4.5 |  | inhibition [5]: 40.8% |
| OC[C@H]1O[C@@H](n2cnc3c(NC4CCCC4)nc(Cl)nc32)[C@H](O)[C@@H]1O |  |  |  |  | Activity [14]: 20 - 30%; Activity (Mesenchymal stem cell [15]): inactive |
| CCNC(=O)[C@H]1O[C@@H](n2cnc3c(N)ncnc32)[C@H](O)[C@@H]1O [NECA] |  |  |  |  | Activity [14]: 20 - 30%; Activity (Mesenchymal stem cell [15]): inactive |
| C[C@@H]1C[C@H]2[C@@H]3CCC4=CC(=O)C=C[C@]4(C)[C@@]3(F)[C@@H](O)C[C@]2(C)[C@@]1(O)C(=O)CO [DEXAMETHASONE] | 100 | 100 |  |  |  |
| O=C(NC1CCC1)[C@H]1S[C@@H](n2cnc3c(NCc4cccc(I)c4)ncnc32)[C@H](O)[C@@H]1O | 323 | 633 | 11.7 | 2610 | Ki [13]: 170 nM |
| CC(C)Cn1c(=O)n(C)c(=O)c2nc[nH]c21 [ISOBUTYLMETHYLXANTHINE] | 100 | 100 |  |  |  |
| O[C@@H]1[C@H](O)CS[C@H]1n1cnc2c(NCc3cccc(I)c3)nc(Cl)nc21 | 192 | 857 |  | 4.83 | Activity (Mus musculus [7]): Active; inhibition [8]: 57%; Activity [9]: Dose-dependent effect; inhibition [16]: Dose-dependent effect; Activity (Mus musculus [17]): Dose-dependent effect; Activity [10]: 54.3%; Activity [11]: inactive |
| CNC(=O)[C@@]12C[C@@H]1[C@@H](n1cnc3c(NCc4cccc(Cl)c4)nc(C#Cc4ccc(F)c(F)c4)nc31)[C@H](O)[C@@H]2O |  |  |  |  | Activity (Mesenchymal stem cell [12]): inactive |
| CCNC(=O)[C@H]1O[C@@H](n2cnc3c(N)nc(NCCc4ccc(CCC(=O)O)cc4)nc32)[C@H](O)[C@@H]1O |  |  |  |  | Activity (Mesenchymal stem cell [15]): inactive |
